Results as given in patent US20220152072A1, “Selective Inhibitors Of Protein Arginine Methyltransferase 5 (PRMT5)” (Prelude Therapeutics, Incorporated, priority 2019, published 2022).
Values belong to the molecule of their own block, whether it stands above or below them.

What was measured:
[1] = In vivo pharmacokinetics in rat, i.v. and p.o.; settings: rat (SD, male, non-fasted), average, N=3
Method: In a rat (SD, male, non-fasted) non-crossover PK study, Example 47 was dosed at 1 mg/kg (DMA: 20% HPBCD=5:95, solution) via i.v. administration (N=3) and 1 mg/kg (0.5% Na CMC+0.5% Tween80, solution) via oral gauge (p.o.) (N=3).

PRMT5/MEP50 complex = PRMT5/MEP50 complex (Homo sapiens, UniProt O14744); assay: Biochemical assay: PRMT5/MEP50 methylation of histone H2A with 3H-SAM, filter plate scintillation; settings: PRMT5/MEP50 5 nM, histone H2A 5 μM, SAM 1 μM
Method: Compounds were solubilized and 3-fold diluted in 100% DMSO. […] Standard reactions were performed in a total volume of 50 μl in assay buffer, with histone H2A (5 μM final) as substrate. To this was added the PRMT5/MEP50 complex diluted to provide a final assay concentration of 5 nM and the compounds were allowed to preincubate for 15 to 20 minutes at room temperature. The reaction was initiated by adding S-[3H-methyl]-adenosyl-L-methionine (PerkinElmer) to final concentration of 1 μM. Following a 60 minutes incubation at 30° C., the reaction was stopped by adding 100 μL of 20% TCA. Each reaction was spotted onto filter plate (MultiScreen FB Filter Plate, Millipore), and washed 5 times with PBS buffer, Scintillation fluid was added to the filter plate and read in a scintillation counter. IC50 values were determined by fitting the data to the standard 4 parameters with Hill Slope using GraphPad Prism software.

FaSSIF solubility (HPLC) = settings: positive control, range
Method: Compounds were first dispersed in freshly prepared FaSSIF (http://biorelevant.com/site_media/upload/documents/How_to_make_FaSSIF_FeSSIF_and_FaSSGF.pdf) buffer in 1 mg/mL respectively, and the standard samples were prepared by preparing 1 mg/mL of test compounds in DMSO. The compounds were then sufficient mixed by vortex mixer for 30 sec, and agitated at 25° C. using 300 rpm form 4 hour in thermo mixer. After incubation, the prepared samples were centrifuged at 10000 rpm for 10 min to remove the undissolved solid, the resulting supernatants were applied to HPLC.
S=Csmp=Cstd*(Asmp/Astd)*(Vstd/Vsmp)
Where C is the sample concentration in μg/mL, A is the peak area, and V is the injection volume.

Sequence of PRMT5/MEP50 complex (O14744 whole entry, species assumed): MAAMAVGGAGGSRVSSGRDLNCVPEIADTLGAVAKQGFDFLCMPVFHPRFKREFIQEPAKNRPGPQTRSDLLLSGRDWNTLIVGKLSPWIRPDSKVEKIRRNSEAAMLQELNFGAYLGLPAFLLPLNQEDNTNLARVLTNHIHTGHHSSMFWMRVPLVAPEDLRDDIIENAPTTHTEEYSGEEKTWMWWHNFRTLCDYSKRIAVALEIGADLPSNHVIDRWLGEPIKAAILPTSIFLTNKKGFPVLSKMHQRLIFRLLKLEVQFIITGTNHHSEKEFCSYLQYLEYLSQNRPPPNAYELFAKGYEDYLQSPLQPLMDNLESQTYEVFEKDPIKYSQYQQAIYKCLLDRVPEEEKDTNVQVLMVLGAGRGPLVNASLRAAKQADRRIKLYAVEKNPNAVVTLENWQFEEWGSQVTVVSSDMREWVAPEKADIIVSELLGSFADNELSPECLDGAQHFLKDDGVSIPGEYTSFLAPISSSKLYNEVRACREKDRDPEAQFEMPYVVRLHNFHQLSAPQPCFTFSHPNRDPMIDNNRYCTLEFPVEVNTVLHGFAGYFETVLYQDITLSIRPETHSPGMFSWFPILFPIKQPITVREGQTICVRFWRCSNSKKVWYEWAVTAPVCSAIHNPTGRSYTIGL
Sequence of PRMT5/MEP50 complex (Q9BQA1 whole entry partner, species assumed): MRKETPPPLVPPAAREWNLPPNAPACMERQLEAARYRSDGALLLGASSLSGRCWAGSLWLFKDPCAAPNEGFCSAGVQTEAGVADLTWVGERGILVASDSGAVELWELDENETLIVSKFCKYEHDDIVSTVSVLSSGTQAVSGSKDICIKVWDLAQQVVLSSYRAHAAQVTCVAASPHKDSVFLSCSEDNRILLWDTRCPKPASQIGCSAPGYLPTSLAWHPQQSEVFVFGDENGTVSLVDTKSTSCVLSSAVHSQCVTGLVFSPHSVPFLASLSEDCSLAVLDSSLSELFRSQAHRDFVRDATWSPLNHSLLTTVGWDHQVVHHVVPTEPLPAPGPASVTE

T1/2 ([1]; 1 mg/kg i.v.): 4.1 h | Vss ([1]; 1 mg/kg i.v.): 3.1 L/kg | blood clearance ([1]; 1 mg/kg i.v.): 8.8 mL/min/kg | dose normalized AUC ([1]; 1 mg/kg p.o.): 3246 ng·kg·h/mL/mg
SMILES: C[C@@]1(O)[C@@H]([C@H](O)c2ccc(Cl)c(Cl)c2)O[C@@H](n2ccc3c(N)ncnc32)[C@@H]1O [Example 47, (2R,3S,4R,5R)-5-(4-amino-7H-pyrrolo[2,3-d]pyrimidin-7-yl)-2-((R)-(3,4-dichlorophenyl) (hydroxy)methyl)-3-methyltetrahydrofuran-3,4-diol]

IC50 (PRMT5/MEP50 complex): 707 nM
SMILES: C[C@@]1(O)[C@@H]([C@@H](O)c2ccc(Cl)c(Cl)c2)O[C@@H](n2ccc3c(N)ncnc32)[C@@H]1O [Example 66, (2R,3S,4R,5R)-5-(4-amino-7H-pyrrolo[2,3-d]pyrimidin-7-yl)-2-((S)-(3,4-dichlorophenyl) (hydroxy)methyl)-3-methyltetrahydrofuran-3,4-diol]

FaSSIF solubility (positive controls) (FaSSIF solubility (HPLC)): 10 to 25 µg/mL
SMILES: CC(=O)CC(c1ccccc1)c1c(O)c2ccccc2oc1=O (stereo not drawn) [Warfarin]
